Legend:
[1] = system: prostate cancer cell line LNCap; test: In vitro cell inhibition assay (crystal violet), prostate cancer LNCap; format: cell-based, human; settings: 5.0 μM
Description: (§1) In vitro Cell inhibition assay is as follows:
(§2) The human cancer cell lines used for this assay were bladder cancer J82, T24, prostate cancer LNCap, PC-3, lung cancer A549, H157, H460, H520, colon cancer HCT8, HCT116, RkO, and leukemia HL-60, etc.
(§3) In vitro cell culture technology was selected for the determination of inhibition rate bladder cancer cell lines J82 and T24, prostate cancer cell lines LNCap and PC-3, lung cancer cell lines A549, H157, H460 and H520. 1000 to 3000 cells were inoculated to 24-well plate, followed by addition of 1 mL culture medium well known to researchers in this field to each well, the cells were cultured in 5% incubator for 24 hours at 37° C., then the different concentration compounds and controls were added to each well. It should be noted that the added volume is not more than 0.5% of total volume. After completion of addition, the cells continued being cultured in incubator for one week, the culture medium was removed and washed by cold PBS of 1 mL once, and then fixed for 10 minutes at room temperature with 1% formalin, followed by wash with PBS of 1 mL. After fixation, stain was carried out with 0.1% crystal violet for 30 minutes. 0.1% crystal violet was recycled. The stained cells were washed gently with deionized water, dried at room temperature and kepted. The inhibition rate was calculated according to the foiling equation. The controls are Selumetinib (AZD6244), Gefitinib, Cisplatin. Inhibition rate=number of left cells each treatment/number of left cells of untreated control×100%

[2] = system: bladder cancer cell line J82; test: In vitro cell inhibition assay (crystal violet), bladder cancer J82; format: cell-based, human
Description: as §1, §2, §3

[3] = system: bladder cancer cell line T24; test: In vitro cell inhibition assay (crystal violet), bladder cancer T24; format: cell-based, human
Description: as §1, §2, §3

[4] = system: prostate cancer cell line PC-3; test: In vitro cell inhibition assay (crystal violet), prostate cancer PC-3; format: cell-based, human; settings: PC-3, 5.0 μM
Description: as §1, §2, §3

[5] = system: lung cancer cell line A549; test: In vitro cell inhibition assay (crystal violet), lung cancer A549; format: cell-based, human
Description: as §1, §2, §3

colon cancer HCT116 = test: In vitro cell inhibition assay, colon cancer HCT116; format: cell-based, human
Description: as §1, §2

[6] = system: lung cancer cell line H460; test: In vitro cell inhibition assay (crystal violet), lung cancer H460; format: cell-based, human
Description: as §1, §2, §3

colon cancer HCT8 = test: In vitro cell inhibition assay, colon cancer HCT8; format: cell-based, human
Description: as §1, §2

[7] = system: lung cancer cell line H520; test: In vitro cell inhibition assay (crystal violet), lung cancer H520; format: cell-based, human
Description: as §1, §2, §3

colon cancer RkO = test: In vitro cell inhibition assay, colon cancer RkO; format: cell-based, human
Description: as §1, §2

[8] = system: human leukemia HL-60 cells; test: Proliferation inhibition of human leukemia HL-60 cells, MTT method; format: cell-based; settings: 48 h incubation, OPTI-MEM medium
Experimental: The inhibition rate of human leukemia HL-60 cells was evaluated by regular MTT method. The human leukemia HL-60 cells were picked up from cell incubator, after washed for twice using PBS, cells were digested by 0.25% trypsin, and then add medium to terminate the digestion. After cells were collected using centrifuge and re-suspended, counting cells under inverted microscope and adding medium to make a density which was 5×10^4 cells/mL. After 100 μL aliquots were added to each well of 96-well microtiter plates, cells were cultured in 5% incubator for overnight at 37° C., then the different concentration compounds were added to each well. After incubation for 48 h, MTT solution was added to each well and plates were then incubated for 4 h. The MTT tetrazolium was reduced to formazan by living cells. Then the formazan crystals were dissolved though adding DMSO to each well. The absorbance was read at 570 nm with a microplate reader.

Compound: CO/C=C(/C(=O)OC)c1ccccc1Oc1cc(Oc2ccccc2C#N)ncn1 [Azoxystrobin]
- Inhibition rate on human cancer cells [1]: 0%
- Inhibition rate on human cancer cells ([2]; J82, 5.0 μM): 0%
- Inhibition rate on human cancer cells ([3]; T24, 5.0 μM): 0%
- Inhibition rate on human cancer cells [4]: 0%

Compound: N.N.[Cl][Pt][Cl] [Cisplatin, reference compound]
- Inhibition rate on human cancer cells ([5]; A549, 0.25 μM): 0%
- Inhibition rate on human cancer cells ([5]; A549, 0.5 μM): 0%
- Inhibition rate on human cancer cells ([5]; A549, 1.0 μM): 5%
- Inhibition rate on human cancer cells ([5]; A549, 2.5 μM): 30%
- Inhibition rate on human cancer cells ([5]; A549, 5.0 μM): 80%
- Inhibition rate on human cancer cells (colon cancer HCT116; HCT 116, 0.25 μM): 0%
- Inhibition rate on human cancer cells (colon cancer HCT116; HCT 116, 0.5 μM): 0%
- Inhibition rate on human cancer cells (colon cancer HCT116; HCT 116, 1.0 μM): 5%
- Inhibition rate on human cancer cells (colon cancer HCT116; HCT 116, 2.5 μM): 20%
- Inhibition rate on human cancer cells (colon cancer HCT116; HCT 116, 5.0 μM): 50%
- Inhibition rate on human cancer cells ([2]; J82, 0.25 μM): 0%
- Inhibition rate on human cancer cells ([2]; J82, 0.5 μM): 0%
- Inhibition rate on human cancer cells ([2]; J82, 1.0 μM): 0%
- Inhibition rate on human cancer cells ([2]; J82, 2.5 μM): 5%
- Inhibition rate on human cancer cells ([2]; J82, 5.0 μM): 20%
- Inhibition rate on human cancer cells ([3]; T24, 0.25 μM): 0%
- Inhibition rate on human cancer cells ([3]; T24, 0.5 μM): 0%
- Inhibition rate on human cancer cells ([3]; T24, 1.0 μM): 0%
- Inhibition rate on human cancer cells ([3]; T24, 2.5 μM): 5%
- Inhibition rate on human cancer cells ([3]; T24, 5.0 μM): 20%
- Inhibition rate on human cancer cells ([6]; H460, 0.25 μM): 0%
- Inhibition rate on human cancer cells ([6]; H460, 0.5 μM): 0%
- Inhibition rate on human cancer cells ([6]; H460, 1.0 μM): 5%
- Inhibition rate on human cancer cells ([6]; H460, 2.5 μM): 30%
- Inhibition rate on human cancer cells ([6]; H460, 5.0 μM): 90%
- Inhibition rate on human cancer cells (colon cancer HCT8; HCT 8, 0.25 μM): 5%
- Inhibition rate on human cancer cells (colon cancer HCT8; HCT 8, 0.5 μM): 10%
- Inhibition rate on human cancer cells (colon cancer HCT8; HCT 8, 1.0 μM): 50%
- Inhibition rate on human cancer cells (colon cancer HCT8; HCT 8, 2.5 μM): 70%
- Inhibition rate on human cancer cells (colon cancer HCT8; HCT 8, 5.0 μM): 90%
- Inhibition rate on human cancer cells ([7]; H520, 0.25 μM): 0%
- Inhibition rate on human cancer cells ([7]; H520, 0.5 μM): 5%
- Inhibition rate on human cancer cells ([7]; H520, 1.0 μM): 20%
- Inhibition rate on human cancer cells ([7]; H520, 2.5 μM): 30%
- Inhibition rate on human cancer cells ([7]; H520, 5.0 μM): 50%
- Inhibition rate on human cancer cells (colon cancer RkO; 0.25 μM): 0%
- Inhibition rate on human cancer cells (colon cancer RkO; 0.5 μM): 5%
- Inhibition rate on human cancer cells (colon cancer RkO; 1.0 μM): 10%
- Inhibition rate on human cancer cells (colon cancer RkO; 2.5 μM): 50%
- Inhibition rate on human cancer cells (colon cancer RkO; 5.0 μM): 70%

Compound: COC=C(C(=O)OC)c1ccccc1COc1ccc2c(C(F)(F)F)cc(=O)oc2c1 [Compound 28-7]
- Inhibition rate on human cancer cells ([5]; A549, 2.5 μM): 70%
- Inhibition rate on human cancer cells ([5]; A549, 5.0 μM): 90%
- Proliferation inhibitory effect on human leukemia HL-60 cell (%) ([8]; concentration 1 μM): 42.3%
- Proliferation inhibitory effect on human leukemia HL-60 cell (%) ([8]; concentration 10 μM): 71.0%
- Proliferation inhibitory effect on human leukemia HL-60 cell (%) ([8]; concentration 100 μM): 83.9%
- Inhibition rate on human cancer cells ([6]; H460, 2.5 μM): 80%
- Inhibition rate on human cancer cells ([6]; H460, 5.0 μM): 95%
- Inhibition rate on human cancer cells ([7]; H520, 2.5 μM): 80%
- Inhibition rate on human cancer cells ([7]; H520, 5.0 μM): 100%

Compound: CCCc1c(C)c2ccc(OCc3ccccc3C(=COC)C(=O)OC)cc2oc1=O [Compound 28-27]
- Inhibition rate on human cancer cells ([5]; A549, 1.0 μM): 80%
- Inhibition rate on human cancer cells ([5]; A549, 2.5 μM): 90%
- Inhibition rate on human cancer cells ([5]; A549, 5.0 μM): 95%
- Proliferation inhibitory effect on human leukemia HL-60 cell (%) ([8]; concentration 1 μM): 59.0%
- Proliferation inhibitory effect on human leukemia HL-60 cell (%) ([8]; concentration 10 μM): 79.9%
- Proliferation inhibitory effect on human leukemia HL-60 cell (%) ([8]; concentration 100 μM): 83.9%
- Inhibition rate on human cancer cells ([6]; H460, 1.0 μM): 80%
- Inhibition rate on human cancer cells ([6]; H460, 2.5 μM): 95%
- Inhibition rate on human cancer cells ([6]; H460, 5.0 μM): 95%
- Inhibition rate on human cancer cells ([7]; H520, 0.5 μM): 95%
- Inhibition rate on human cancer cells ([7]; H520, 1.0 μM): 100%
- Inhibition rate on human cancer cells ([7]; H520, 2.5 μM): 100%
- Inhibition rate on human cancer cells ([7]; H520, 5.0 μM): 100%
